Patent publication US6608071B2, “Isoquinoline derivatives with angiogenesis inhibiting activity” (Novartis AG, priority 1998, dated 2003)

Biological target: T1, Flt-1 VEGF receptor tyrosine kinase (Homo sapiens, UniProt P17948)
T1 construct: 10 ng of the kinase domain of Flt-1
T1 sequence (P17948 827-1158 limits assumed): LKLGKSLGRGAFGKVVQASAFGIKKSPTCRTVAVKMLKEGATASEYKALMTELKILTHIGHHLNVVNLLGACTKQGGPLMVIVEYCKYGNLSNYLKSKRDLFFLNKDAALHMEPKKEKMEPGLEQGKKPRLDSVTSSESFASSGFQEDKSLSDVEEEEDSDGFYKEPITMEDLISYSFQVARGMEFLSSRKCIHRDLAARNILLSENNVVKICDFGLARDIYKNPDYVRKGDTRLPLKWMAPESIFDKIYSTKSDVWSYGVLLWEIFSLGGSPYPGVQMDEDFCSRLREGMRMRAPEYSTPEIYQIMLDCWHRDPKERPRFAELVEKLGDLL
Assay: Test for activity against Flt-1 VEGF receptor tyrosine kinase activity
Type: biochemical
Details: kinase domain of Flt-1, poly(Glu,Tyr) 4:1, 8 μM [33P]-ATP, 15 minutes at room temperature
Description: Test for activity against VEGF receptor tyrosine kinase activity: The test is carried out using Flt-1 VEGF receptor tyrosine kinase. In detail, the procedure is as follows: 30 μl of kinase solution (10 ng of the kinase domain of Flt-1, Shibuya et al., Oncogene 5, 519-524 (1990)) in 20 mM Tris-HCl pH 7.6, 3 mM manganese dichloride (MnCl2), 3 mM magnesium chloride (MgCl2) and 3 μg/ml of poly(Glu,Tyr) 4:1 (Sigma, Buchs, Switzerland), 8 μM [^33P]-ATP (0.2 μCi/batch), 1% dimethyl sulfoxide and from 0 to 50 μM of the test compound are incubated together for 15 minutes at room temperature. The reaction is then terminated by addition of 10 μl of 0.25M ethylenediamine tetraacetate (EDTA) pH 7. An aliquot of 20 μl is connected to a vacuum using a multichannel dispenser (LAB SYSTEMS, USA) on a PVDF (=polyvinyl difluoride) Immobilon P membrane (Millipore, USA), which is incorporated in a Millipore Microtiter filter manifold. When the liquid has been removed completely, the membrane is incubated 4 times in succession, in each case for 10 minutes, with shaking, in a washing bath containing 0.5% phosphoric acid (H3PO4), and is then mounted in a Hewlett Packard TopCount Manifold and, after addition of 10 μl of Microscint® (β-scintillation counter fluid; Packard, USA), the radioactivity is, measured. IC50 values are determined by linear regression analysis of the percentage values for the inhibition of each compound at three concentrations (generally 0.01, 0.1 and 1 μM). The inhibition values (IC50 with half-maximum inhibition as compared with a control without inhibitor of formula I) found are especially in the range of from 10 nmol/liter to 100 μmol/liter, more especially from 20 to 2000 nmol/liter.
The test is carried out using Fit-1 VEGF receptor tyrosine kinase, as described above. The IC50 values obtained are shown below, insofar as they were calculated accurately: […]

Point of comparison: Clc1ccc(Nc2ncc(Cc3ccncc3)c3ccccc23)cc1 [Example 2], IC50 346 nM. Against it:
- Cc1cc(C)cc(Nc2ncc(Cc3ccncc3)c3ccccc23)c1 [Example 1, 1-(3,5-Dimethylanilino)-4-[(pyridin-4-yl)-methyl]-isoquinoline] — 2.3-fold higher, 802 nM
- FC(F)(F)c1cc(Br)cc(Nc2ncc(Cc3ccncc3)c3ccccc23)c1 [Example 3] — higher, > 1000 nM
- FC(F)(F)c1cc(Nc2ncc(Cc3ccncc3)c3ccccc23)ccc1Cl [Example 4] — higher, > 1000 nM
- Cc1cccc(Nc2ncc(Cc3ccncc3)c3ccccc23)c1 [Example 5] — within 1.5-fold, 344 nM

System: not given
Assay: not given
Details: not given

First: Cc1cc(C)cc(Nc2ncc(Cc3ccncc3)c3ccccc23)c1 [Example 1, 1-(3,5-Dimethylanilino)-4-[(pyridin-4-yl)-methyl]-isoquinoline]
Second: Clc1cccc(CNc2ncc(Cc3ccncc3)c3ccccc23)c1 [Example 132, 1-(3-Chlorobenzylamino)-4-[(pyridin-4-yl)-methyl]-isoquinoline]
The melting point of the first is higher: 156 to 158 °C for the first, 141 to 142 °C for the second.
